Here are results for two compounds from patent US5057613A, “Novel thione dopamine beta hydroxylase inhibitors” (Merrell Dow Pharmaceuticals, priority 1987, dated 1991).

The subject of experiment [1] is spontaneously hypertensive rats (SHR's). Nature of the experiment: in vivo antihypertensive effect, blood pressure in spontaneously hypertensive rats. Particulars: 50 mg/kg, IP, Mean Difference ± Standard Deviation. The procedure:
The ability of the compounds of this invention to lower blood pressure can be determined in vivo using spontaneously hypertensive rats (SHR's) according to standard and well known procedures. The test compound is administered intraperitoneally (ip) to rats and the blood pressure monitored continuously. Since DBH is a major enzyme in the synthetic pathway of the catecholamines, it would be expected that the presence of an inhibitor would act to decrease the amount of catecholamines produced, and thereby have an antihypertensive effect. The results of the testing for this antihypertensive effect are shown in Table I (MBP is mean blood pressure).

The target in experiment [2] is T1, dopamine beta-hydroxylase (DBH) (Bos taurus, UniProt P15101).
T1 sequence (P15101 1-610): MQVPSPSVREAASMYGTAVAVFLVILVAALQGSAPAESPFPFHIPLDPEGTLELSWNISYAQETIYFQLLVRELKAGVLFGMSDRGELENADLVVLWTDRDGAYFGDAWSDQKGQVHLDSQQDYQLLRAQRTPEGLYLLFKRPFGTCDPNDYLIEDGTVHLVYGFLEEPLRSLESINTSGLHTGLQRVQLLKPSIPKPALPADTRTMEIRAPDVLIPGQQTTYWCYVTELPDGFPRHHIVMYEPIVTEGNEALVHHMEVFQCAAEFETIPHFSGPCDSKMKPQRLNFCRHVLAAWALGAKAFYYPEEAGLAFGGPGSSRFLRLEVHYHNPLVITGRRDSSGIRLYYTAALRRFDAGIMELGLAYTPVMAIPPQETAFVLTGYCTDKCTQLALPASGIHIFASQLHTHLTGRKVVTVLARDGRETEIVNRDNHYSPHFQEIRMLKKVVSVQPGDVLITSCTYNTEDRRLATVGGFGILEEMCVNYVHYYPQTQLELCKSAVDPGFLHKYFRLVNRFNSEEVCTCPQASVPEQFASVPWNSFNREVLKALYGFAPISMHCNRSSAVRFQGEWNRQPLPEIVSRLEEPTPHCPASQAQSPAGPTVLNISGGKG
The experiment is described as follows: in vitro inhibition of dopamine beta-hydroxylase (conversion of tyramine to octopamine, oxygen uptake by polarographic electrode). Type of experiment: biochemical. The note with it: pH 5, 20-40° C, preferably 37° C. The procedure:
The DBH inhibitory compounds of this invention can readily be determined in vitro by standard and well known procedures for assaying conversion of tyramine to octopamine in the presence of dopamine beta-hydroxylase (DBH). Enzymatic oxygenation by DBH is determined in aqueous solution in the presence of molecular oxygen, an electron donor such as ascorbate, and the necessary cofactors for the enzyme at pH of 5 and a temperature of 20°-40° C., preferably 37° C. The test compound is added at the desired concentration, and the system is incubated. Activity is determined by measuring the oxygen uptake using a polarographic electrode and an oxygen monitor by the method of S. May, et al., J. Biol. Chem. 256, 2258 (1981). Inhibition is given in molar concentration of compound at which DBH activity was halved (IC50) when the test compounds were tested according to the above described procedure. The IC50 (expressed in micromolar units) data of some of the compounds of this invention are expressed in Table I.

Another experiment has as its system DBH. The experiment is described as follows: in vivo DBH inhibition, heart dopamine level in spontaneously hypertensive rats. Particulars: 50 mg/kg, IP, 6 hours post dose in SHR's; Control 0.015 ± .002; p < .001. The procedure: The compounds of this invention may also be tested for their in vivo DBH inhibiting property according to the procedure of Felice, Felice and Kessinger, J. Neurochem., 31, 1461-1465 (1978) wherein the effects on peripheral dopamine and norepinephrine levels are determined. In this test spontaneously hypertensive rats are dosed (i.p.) at 50 mg per kilogram of body weight and sacrificed six hours later. Average results, expressed in micrograms of dopamine (DA) per gram of heart tissue are determined with the difference between the control and the treated rats being the in vivo (DBH) inhibitory effect of the test compound.

On to `S=c1[nH]ccn1CCc1cccs1` [Compound 1, 1,3-Dihydro-1-[2-(2-thienyl)ethyl]-2H-imidazole-2-thione], for which, in experiment [1], the “Max Change MBP (mean blood pressure)” value is reported as -45 ± 17 mmHg. The compound also yielded an IC50 in experiment [2] of 120 nM. Further, in the experiment with DBH, the “Heart DA (dopamine per gram of heart tissue), treated” value is 0.038 ± .003 µg/g.
With `Sc1nccn1CCCc1cccs1` [Compound 2, 1,3-Dihydro-1-[3-(2-thienyl)propyl]-2H-imidazole-2-thione], half-maximal inhibition in experiment [2] (IC50) required 1860 nM.

One may read the IC50 as the midpoint of a concentration-inhibition curve.
